# Laboratory results from the OligoGym collection.
# Oligonucleotides are given in HELM: sugar(base)linkage, 5' to 3'; d 2'-deoxyribose, r ribose, m 2'-O-methylribose, p phosphate. ss, as = sense and antisense strand
# Molecular target: CDC34
# Assay: reporter assay of Huesken 2005
# Details: siRNA
# Further: test concentration or dose not given here.
row,Substance,normalised inhibition (eCFP-eYFP dual reporter) [%]
1,RNA1{r(A)p.r(C)p.r(C)p.r(C)p.r(C)p.r(A)p.r(C)p.r(G)p.r(C)p.r(A)p.r(G)p.r(A)p.r(A)p.r(C)p.r(G)p.r(U)p.r(C)p.r(A)p.r(G)p.d(T)p.d(T)}|RNA2{r(C)p.r(U)p.r(G)p.r(A)p.r(C)p.r(G)p.r(U)p.r(U)p.r(C)p.r(U)p.r(G)p.r(C)p.r(G)p.r(U)p.r(G)p.r(G)p.r(G)p.r(G)p.r(U)p.d(T)p.d(C)}$$$RNA1{StrandType:ss}|RNA2{StrandType:as}$,57.8
2,RNA1{r(A)p.r(C)p.r(C)p.r(U)p.r(C)p.r(U)p.r(U)p.r(C)p.r(U)p.r(A)p.r(C)p.r(G)p.r(A)p.r(C)p.r(G)p.r(A)p.r(C)p.r(U)p.r(A)p.d(T)p.d(T)}|RNA2{r(U)p.r(A)p.r(G)p.r(U)p.r(C)p.r(G)p.r(U)p.r(C)p.r(G)p.r(U)p.r(A)p.r(G)p.r(A)p.r(A)p.r(G)p.r(A)p.r(G)p.r(G)p.r(U)p.d(C)p.d(T)}$$$RNA1{StrandType:ss}|RNA2{StrandType:as}$,89.3
3,RNA1{r(A)p.r(C)p.r(G)p.r(C)p.r(U)p.r(G)p.r(G)p.r(C)p.r(C)p.r(G)p.r(A)p.r(G)p.r(U)p.r(A)p.r(C)p.r(U)p.r(G)p.r(C)p.r(G)p.d(T)p.d(T)}|RNA2{r(C)p.r(G)p.r(C)p.r(A)p.r(G)p.r(U)p.r(A)p.r(C)p.r(U)p.r(C)p.r(G)p.r(G)p.r(C)p.r(C)p.r(A)p.r(G)p.r(C)p.r(G)p.r(U)p.d(G)p.d(G)}$$$RNA1{StrandType:ss}|RNA2{StrandType:as}$,52.4
4,RNA1{r(A)p.r(C)p.r(G)p.r(U)p.r(C)p.r(A)p.r(G)p.r(G)p.r(A)p.r(C)p.r(C)p.r(A)p.r(U)p.r(U)p.r(C)p.r(U)p.r(C)p.r(C)p.r(U)p.d(T)p.d(T)}|RNA2{r(A)p.r(G)p.r(G)p.r(A)p.r(G)p.r(A)p.r(A)p.r(U)p.r(G)p.r(G)p.r(U)p.r(C)p.r(C)p.r(U)p.r(G)p.r(A)p.r(C)p.r(G)p.r(U)p.d(T)p.d(C)}$$$RNA1{StrandType:ss}|RNA2{StrandType:as}$,72.2
5,RNA1{r(A)p.r(C)p.r(U)p.r(A)p.r(C)p.r(G)p.r(A)p.r(G)p.r(G)p.r(G)p.r(C)p.r(G)p.r(G)p.r(C)p.r(U)p.r(A)p.r(C)p.r(U)p.r(U)p.d(T)p.d(T)}|RNA2{r(A)p.r(A)p.r(G)p.r(U)p.r(A)p.r(G)p.r(C)p.r(C)p.r(G)p.r(C)p.r(C)p.r(C)p.r(U)p.r(C)p.r(G)p.r(U)p.r(A)p.r(G)p.r(U)p.d(A)p.d(G)}$$$RNA1{StrandType:ss}|RNA2{StrandType:as}$,73.7
6,RNA1{r(A)p.r(G)p.r(C)p.r(A)p.r(A)p.r(G)p.r(G)p.r(G)p.r(G)p.r(A)p.r(A)p.r(G)p.r(G)p.r(A)p.r(U)p.r(C)p.r(G)p.r(G)p.r(G)p.d(T)p.d(T)}|RNA2{r(C)p.r(C)p.r(C)p.r(G)p.r(A)p.r(U)p.r(C)p.r(C)p.r(U)p.r(U)p.r(C)p.r(C)p.r(C)p.r(C)p.r(U)p.r(U)p.r(G)p.r(C)p.r(U)p.d(C)p.d(T)}$$$RNA1{StrandType:ss}|RNA2{StrandType:as}$,41.2
7,RNA1{r(A)p.r(G)p.r(G)p.r(A)p.r(A)p.r(G)p.r(A)p.r(G)p.r(C)p.r(C)p.r(G)p.r(G)p.r(U)p.r(C)p.r(G)p.r(A)p.r(G)p.r(G)p.r(G)p.d(T)p.d(T)}|RNA2{r(C)p.r(C)p.r(C)p.r(U)p.r(C)p.r(G)p.r(A)p.r(C)p.r(C)p.r(G)p.r(G)p.r(C)p.r(U)p.r(C)p.r(U)p.r(U)p.r(C)p.r(C)p.r(U)p.d(G)p.d(C)}$$$RNA1{StrandType:ss}|RNA2{StrandType:as}$,44.3
8,RNA1{r(A)p.r(G)p.r(G)p.r(U)p.r(G)p.r(G)p.r(A)p.r(A)p.r(C)p.r(C)p.r(C)p.r(C)p.r(A)p.r(C)p.r(G)p.r(C)p.r(A)p.r(G)p.r(A)p.d(T)p.d(T)}|RNA2{r(U)p.r(C)p.r(U)p.r(G)p.r(C)p.r(G)p.r(U)p.r(G)p.r(G)p.r(G)p.r(G)p.r(U)p.r(U)p.r(C)p.r(C)p.r(A)p.r(C)p.r(C)p.r(U)p.d(C)p.d(T)}$$$RNA1{StrandType:ss}|RNA2{StrandType:as}$,72.6
9,RNA1{r(C)p.r(A)p.r(A)p.r(G)p.r(G)p.r(C)p.r(G)p.r(C)p.r(C)p.r(G)p.r(G)p.r(C)p.r(G)p.r(C)p.r(C)p.r(C)p.r(G)p.r(A)p.r(C)p.d(T)p.d(T)}|RNA2{r(G)p.r(U)p.r(C)p.r(G)p.r(G)p.r(G)p.r(C)p.r(G)p.r(C)p.r(C)p.r(G)p.r(G)p.r(C)p.r(G)p.r(C)p.r(C)p.r(U)p.r(U)p.r(G)p.d(G)p.d(T)}$$$RNA1{StrandType:ss}|RNA2{StrandType:as}$,26.8
10,RNA1{r(C)p.r(A)p.r(C)p.r(C)p.r(C)p.r(G)p.r(C)p.r(C)p.r(G)p.r(G)p.r(U)p.r(G)p.r(G)p.r(A)p.r(C)p.r(G)p.r(A)p.r(C)p.r(C)p.d(T)p.d(T)}|RNA2{r(G)p.r(G)p.r(U)p.r(C)p.r(G)p.r(U)p.r(C)p.r(C)p.r(A)p.r(C)p.r(C)p.r(G)p.r(G)p.r(C)p.r(G)p.r(G)p.r(G)p.r(U)p.r(G)p.d(G)p.d(A)}$$$RNA1{StrandType:ss}|RNA2{StrandType:as}$,25.4
11,RNA1{r(C)p.r(A)p.r(C)p.r(U)p.r(G)p.r(G)p.r(U)p.r(G)p.r(G)p.r(A)p.r(C)p.r(G)p.r(A)p.r(G)p.r(G)p.r(G)p.r(C)p.r(G)p.r(A)p.d(T)p.d(T)}|RNA2{r(U)p.r(C)p.r(G)p.r(C)p.r(C)p.r(C)p.r(U)p.r(C)p.r(G)p.r(U)p.r(C)p.r(C)p.r(A)p.r(C)p.r(C)p.r(A)p.r(G)p.r(U)p.r(G)p.d(T)p.d(C)}$$$RNA1{StrandType:ss}|RNA2{StrandType:as}$,75.5
12,RNA1{r(C)p.r(A)p.r(G)p.r(G)p.r(U)p.r(C)p.r(C)p.r(U)p.r(G)p.r(G)p.r(G)p.r(G)p.r(A)p.r(C)p.r(C)p.r(A)p.r(A)p.r(G)p.r(G)p.d(T)p.d(T)}|RNA2{r(C)p.r(C)p.r(U)p.r(U)p.r(G)p.r(G)p.r(U)p.r(C)p.r(C)p.r(C)p.r(C)p.r(A)p.r(G)p.r(G)p.r(A)p.r(C)p.r(C)p.r(U)p.r(G)p.d(C)p.d(T)}$$$RNA1{StrandType:ss}|RNA2{StrandType:as}$,43
13,RNA1{r(C)p.r(C)p.r(A)p.r(C)p.r(C)p.r(C)p.r(G)p.r(C)p.r(C)p.r(G)p.r(G)p.r(U)p.r(G)p.r(G)p.r(A)p.r(C)p.r(G)p.r(A)p.r(C)p.d(T)p.d(T)}|RNA2{r(G)p.r(U)p.r(C)p.r(G)p.r(U)p.r(C)p.r(C)p.r(A)p.r(C)p.r(C)p.r(G)p.r(G)p.r(C)p.r(G)p.r(G)p.r(G)p.r(U)p.r(G)p.r(G)p.d(A)p.d(G)}$$$RNA1{StrandType:ss}|RNA2{StrandType:as}$,44.2
14,RNA1{r(C)p.r(C)p.r(C)p.r(A)p.r(A)p.r(C)p.r(A)p.r(C)p.r(C)p.r(U)p.r(U)p.r(C)p.r(U)p.r(C)p.r(G)p.r(C)p.r(C)p.r(C)p.r(G)p.d(T)p.d(T)}|RNA2{r(C)p.r(G)p.r(G)p.r(G)p.r(C)p.r(G)p.r(A)p.r(G)p.r(A)p.r(A)p.r(G)p.r(G)p.r(U)p.r(G)p.r(U)p.r(U)p.r(G)p.r(G)p.r(G)p.d(C)p.d(T)}$$$RNA1{StrandType:ss}|RNA2{StrandType:as}$,45.9
15,RNA1{r(C)p.r(C)p.r(C)p.r(C)p.r(A)p.r(U)p.r(C)p.r(G)p.r(A)p.r(C)p.r(U)p.r(A)p.r(C)p.r(C)p.r(C)p.r(A)p.r(U)p.r(A)p.r(C)p.d(T)p.d(T)}|RNA2{r(G)p.r(U)p.r(A)p.r(U)p.r(G)p.r(G)p.r(G)p.r(U)p.r(A)p.r(G)p.r(U)p.r(C)p.r(G)p.r(A)p.r(U)p.r(G)p.r(G)p.r(G)p.r(G)p.d(A)p.d(A)}$$$RNA1{StrandType:ss}|RNA2{StrandType:as}$,44.9
16,RNA1{r(C)p.r(C)p.r(G)p.r(A)p.r(G)p.r(U)p.r(A)p.r(C)p.r(U)p.r(G)p.r(C)p.r(G)p.r(U)p.r(G)p.r(A)p.r(A)p.r(G)p.r(A)p.r(C)p.d(T)p.d(T)}|RNA2{r(G)p.r(U)p.r(C)p.r(U)p.r(U)p.r(C)p.r(A)p.r(C)p.r(G)p.r(C)p.r(A)p.r(G)p.r(U)p.r(A)p.r(C)p.r(U)p.r(C)p.r(G)p.r(G)p.d(C)p.d(C)}$$$RNA1{StrandType:ss}|RNA2{StrandType:as}$,59
17,RNA1{r(C)p.r(C)p.r(U)p.r(C)p.r(C)p.r(U)p.r(G)p.r(A)p.r(A)p.r(C)p.r(G)p.r(A)p.r(G)p.r(C)p.r(C)p.r(C)p.r(A)p.r(A)p.r(C)p.d(T)p.d(T)}|RNA2{r(G)p.r(U)p.r(U)p.r(G)p.r(G)p.r(G)p.r(C)p.r(U)p.r(C)p.r(G)p.r(U)p.r(U)p.r(C)p.r(A)p.r(G)p.r(G)p.r(A)p.r(G)p.r(G)p.d(G)p.d(A)}$$$RNA1{StrandType:ss}|RNA2{StrandType:as}$,68.2
18,RNA1{r(C)p.r(C)p.r(U)p.r(C)p.r(U)p.r(U)p.r(C)p.r(U)p.r(A)p.r(C)p.r(G)p.r(A)p.r(C)p.r(G)p.r(A)p.r(C)p.r(U)p.r(A)p.r(C)p.d(T)p.d(T)}|RNA2{r(G)p.r(U)p.r(A)p.r(G)p.r(U)p.r(C)p.r(G)p.r(U)p.r(C)p.r(G)p.r(U)p.r(A)p.r(G)p.r(A)p.r(A)p.r(G)p.r(A)p.r(G)p.r(G)p.d(T)p.d(C)}$$$RNA1{StrandType:ss}|RNA2{StrandType:as}$,82.7
19,RNA1{r(C)p.r(C)p.r(U)p.r(G)p.r(A)p.r(G)p.r(U)p.r(G)p.r(U)p.r(G)p.r(A)p.r(U)p.r(C)p.r(U)p.r(C)p.r(C)p.r(C)p.r(U)p.r(C)p.d(T)p.d(T)}|RNA2{r(G)p.r(A)p.r(G)p.r(G)p.r(G)p.r(A)p.r(G)p.r(A)p.r(U)p.r(C)p.r(A)p.r(C)p.r(A)p.r(C)p.r(U)p.r(C)p.r(A)p.r(G)p.r(G)p.d(A)p.d(G)}$$$RNA1{StrandType:ss}|RNA2{StrandType:as}$,58.4
20,RNA1{r(C)p.r(G)p.r(A)p.r(C)p.r(G)p.r(A)p.r(C)p.r(U)p.r(A)p.r(C)p.r(U)p.r(A)p.r(C)p.r(G)p.r(G)p.r(G)p.r(A)p.r(C)p.r(G)p.d(T)p.d(T)}|RNA2{r(C)p.r(G)p.r(U)p.r(C)p.r(C)p.r(C)p.r(G)p.r(U)p.r(A)p.r(G)p.r(U)p.r(A)p.r(G)p.r(U)p.r(C)p.r(G)p.r(U)p.r(C)p.r(G)p.d(T)p.d(A)}$$$RNA1{StrandType:ss}|RNA2{StrandType:as}$,62.7
